Our source for the GI50 and TGI values is PubChem BioAssay (NCI).

Where “and” joins values, the source holds several entries; their conditions need not be identical. Equal entries are not always repeated.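 Test compounds were applied to cells in 96-well plates for 48 hours at 5 doses. The concentration for 50% growth inhibition is given as GI50. TGI: concentration producing complete growth inhibition.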

Some test systems named below: HT29 colon; ACHN renal; COLO 205 colon; TK-10 renal; SK-MEL-5 melanoma; 786-0 renal; DU-145 prostate; SF-295 CNS; U251 CNS; SK-MEL-28 melanoma.
Assay in all cases: NCI tumour cell line growth inhibition, 48 h

For `CCCN1C(=O)/C(=C/c2ccc(SC(F)(F)F)cc2)SC1=Nc1ccc(OC)cc1`, the GI50 in the test with HT29 colon is 17.6 µM; in the test with ACHN renal, 5.53 µM; in the test with COLO 205 colon, over 50 µM; with TK-10 renal, 7.1 µM; with SK-MEL-5 melanoma, 17.3 µM; with 786-0 renal it was 9.56 µM. Further, the GI50 was 21.8 µM in the test on DU-145 prostate, 9.32 µM in the test on SF-295 CNS, 6.51 µM in the test on U251 CNS and 28.4 µM with SK-MEL-28 melanoma. The TGI with HT29 colon was over 50 µM; in the test with ACHN renal, 11.8 µM; in the test with COLO 205 colon, over 50 µM; in the test on TK-10 renal, 19.2 µM; in the test with SK-MEL-5 melanoma, over 50 µM; in the test on 786-0 renal, 25.6 µM. Also, the TGI was over 50 µM in the test on DU-145 prostate, 38.1 µM in the test on SF-295 CNS, 16.9 µM in the test on U251 CNS and over 50 µM with SK-MEL-28 melanoma.

On to `NNc1c(C(N)=O)c2c(N)ncnc2n1C1OC(CO)C(O)C1O` (stereo not drawn), for which the GI50 in the test on HT29 colon is under 0.0118 µM; in the test with ACHN renal, 0.0167 µM; in the test with COLO 205 colon it was under 0.01 µM; in the test with TK-10 renal it was 0.0243 µM and 0.0434 µM; with SK-MEL-5 melanoma it was 0.0601 µM and 0.0828 µM; in the test on 786-0 renal, 0.0354 µM and 0.107 µM. The GI50 is under 0.0151 µM in the test on DU-145 prostate; 0.023 µM and 0.0635 µM in the test on U251 CNS; 0.138 µM and 0.0291 µM in the test with SK-MEL-28 melanoma. Further, the TGI in the test on ACHN renal is 0.101 µM and 0.499 µM; with COLO 205 colon, 0.0552 µM and 0.0342 µM; in the test on TK-10 renal it was 1.14 µM and 1.49 µM; in the test on SK-MEL-5 melanoma, 0.194 µM and 0.275 µM; in the test with 786-0 renal it was 0.405 µM and 1.87 µM; in the test on DU-145 prostate, 0.183 µM and 0.178 µM. Also, the TGI in the test with SF-295 CNS was 9.44 µM and 2.91 µM; in the test with U251 CNS, 12.9 µM and > 100 µM; in the test on SK-MEL-28 melanoma, 0.759 µM and 0.192 µM.

Take `O=S(=O)(c1ccccc1)N1CCCC(c2ccccc2)CC1` (stereo not drawn): the TGI in the test on HT29 colon was 42 µM; in the test with ACHN renal, over 100 µM; with COLO 205 colon, over 100 µM; in the test on TK-10 renal, over 100 µM; in the test with SK-MEL-5 melanoma, 28.9 µM; in the test on 786-0 renal, over 100 µM. Also, the TGI in the test with DU-145 prostate, in the test on SF-295 CNS, in the test on U251 CNS and in the test with SK-MEL-28 melanoma was over 100 µM in each case.

On to `CC(C)=C[C@@H]1C[C@H](C)[C@H]2CC[C@H](C)c3c(O)c(OC4OC(C)C(O)C(O)C4O)c(C)c1c32` (stereo partly drawn), for which the GI50 with HT29 colon is 4.07 µM; in the test on ACHN renal, 14.1 µM; with COLO 205 colon, 14.4 µM; in the test on TK-10 renal, 16.3 µM; in the test on SK-MEL-5 melanoma, 12 µM; in the test with 786-0 renal, 17.8 µM. In addition, the GI50 was 10.9 µM with DU-145 prostate, 15.9 µM with SF-295 CNS, 14.7 µM in the test on U251 CNS and 18.1 µM in the test with SK-MEL-28 melanoma. Further, the TGI in the test with HT29 colon was 15.6 µM; with ACHN renal, 27.1 µM; with COLO 205 colon, 27.9 µM; in the test with TK-10 renal it was 30.2 µM; with SK-MEL-5 melanoma, 24.7 µM; with 786-0 renal, 33 µM. Moreover, the TGI was found to be 23.3 µM in the test on DU-145 prostate, 30.9 µM with SF-295 CNS, 27.8 µM with U251 CNS and 32.1 µM in the test with SK-MEL-28 melanoma.

In the case of `S=c1ssnc1-c1cc2ccccc2o1`, the GI50 in the test on HT29 colon is 14.3 µM; in the test with ACHN renal it was 15.2 µM; in the test with COLO 205 colon it was 14.8 µM; in the test on TK-10 renal, 22.1 µM; in the test on SK-MEL-5 melanoma, 13.6 µM; in the test with 786-0 renal it was 16.5 µM. Besides, the GI50 in the test on DU-145 prostate is 7.35 µM; in the test with SF-295 CNS, 14.3 µM; in the test with U251 CNS, 15.1 µM; in the test on SK-MEL-28 melanoma it was 15.1 µM. The TGI with HT29 colon was found to be 29.3 µM; in the test with ACHN renal it was 38.8 µM; in the test on COLO 205 colon, 39.5 µM; in the test with TK-10 renal, 45.9 µM; in the test on SK-MEL-5 melanoma, 26.7 µM; in the test on 786-0 renal it was 34.8 µM. For the same molecule, the TGI in the test on DU-145 prostate turned out to be 20.4 µM; in the test with SF-295 CNS it was 33.8 µM; in the test on U251 CNS, 28.4 µM; in the test on SK-MEL-28 melanoma, 30 µM.

Take `CCOc1ccc2nc(NC(=O)C(=O)C3C(=O)C(CC4C(=O)c5ccccc5C4=O)C(=O)CC3(C)C)sc2c1` (stereo not drawn): the TGI in the test on HT29 colon, with ACHN renal, in the test with COLO 205 colon, in the test on TK-10 renal, in the test on SK-MEL-5 melanoma and in the test with 786-0 renal was over 100 µM in each case. Also, the TGI in the test on DU-145 prostate, with SF-295 CNS, in the test with U251 CNS and with SK-MEL-28 melanoma was over 100 µM throughout.
